Data as given in publication PMC7153024, “New 8-Nitroquinolinone Derivative Displaying Submicromolar in Vitro Activities against Both Trypanosoma brucei and cruzi” (ACS Medicinal Chemistry Letters, 2020).
Values joined by “and” are separate entries in the source; they are usually repeats but may differ in a detail not shown here. Identical values can stand only once. “Also recorded” adds a separate entry of the source. Like-named read-outs stand apart in the source and are kept apart here.

How the values were obtained:
HepG2 cell line [1] = details: read-out: Cytotoxicity HepG2 CC50, cited from earlier work
[2] = tested on: L. infantum axenic amastigotes; test: Antileishmanial activity on L. infantum axenic amastigotes; type: cell-based, Leishmania infantum; details: for Activity toward L. infantum (in words): axenic amastigotes
Experimental: Experiments were performed at room temperature
The supporting electrolyte
The redox potentials measured (V/SCE) correspond […]
in a ventilated flask to transform promastigotes into axenic amastigotes. The amastigote stage was checked both by electron microscopy (short flagellum with small bulbous tip extending beyond a spherical cell body) and RT-PCR for confirming the overexpression of ATG8 and amastin genes in amastigotes, compared to promastigotes. The effects of the tested compounds on the growth of L. infantum axenic amastigotes were assessed as follows. L. infantum amastigotes were incubated at a density of 2 × 10^6 parasites/mL in sterile 96-well plates with various concentrations of compounds dissolved in DMSO (final concentration less than 0.5% v/v), in duplicate. Appropriate controls DMSO, amphotericin B, miltefosine and fexinidazole (reference drugs purchased from Sigma Aldrich) were added to each set of experiments. After a 48 h incubation period at 37 °C, each plate-well was then microscopically-examined to detect any precipitate formation. To estimate the luciferase activity of axenic amastigotes, 80 µL of each well were transferred to white 96-well plates, Steady Glow® reagent (Promega) was added according to manufacturer's instructions, and plates were incubated for 2 min. The luminescence was measured in Microbeta Luminescence Counter (PerkinElmer). Efficient […]
metabolic activity of L. infantum amastigotes compared to control. EC 50 values were calculated by non- […]
values represent the mean of three independent experiments.
Antileishmanial activity on L. donovani promastigotes NTR1 and NTR2 over-expressing strain.
Cell lines and culture conditions: The clonal Leishmania donovani cell line LdBOB (derived from MHOM/SD/62/1S-CL2D) was grown as promastigotes at 26 °C in modified M199 media, as previously described.[2] LdBOB promastigotes overexpressing NTR1 (LinJ.05.0660) and NTR2 (LinJ.12.0730) were grown in the presence of nourseothricin (100 µg/mL). To examine the effects of test compounds on growth, triplicate promastigote cultures were seeded with 5 × 10^4 parasites/mL. Parasites were grown in 10 ml cultures in the presence of drug for 72 h, after which 200 μL aliquots of each culture were added to 96-well plates, 50 μM resazurin was added to each well and fluorescence (excitation of 528

[3] = tested on: T. brucei brucei trypomastigotes; test: Antitrypanosomal activity on T. brucei brucei trypomastigotes (AnTat 1.9, Alamar Blue); type: cell-based, Trypanosoma brucei brucei; details: for Antitrypanosomal activity against T. b. brucei (in words): trypomastigotes; for Selectivity index regarding T. b. brucei: HepG2 CC50 versus T. b. brucei EC50; for EC50: Trypanosoma brucei, read-out: T. b. brucei trypomastigotes EC50
in vitro = details: human, Cytotoxicity HepG2 CC50
[4] = Redox potentials by cyclic voltammetry in DMSO; details: 13 vs hit 2; 9, hit 1 and 2 vs pharmacophore; 10 vs 9; 5 vs 2
[5] = PAMPA assay using a blood-brain barrier (BBB) model; type: in vitro ADME; details: tested concentration 100 µM, pH 7.4
[6] = tested on: Trypanosoma brucei brucei trypomastigotes wild type; test: T. brucei trypomastigotes, wild type strain (S427); type: cell-based
Experimental: Cells overexpressing NTR were
Cell densities were determined after culture for 72 h, as previously described. EC50 values were determined using GraFit as described above.
Cytotoxic evaluation on HepG2 cell line.
Briefly, cells (1 × 10^5 cells/mL) in 100
Each plate-well was then microscope-examined […]
for 2 h at 37 °C and 5% CO2. […]
added to dissolve the resulting formazan crystals. Plates were shaken vigorously (300 rpm) for 5 min.

HepG2 cell line [7] = test: Alkaline comet assay on HepG2 cells; type: cell-based, human; details: HepG2, 1 and 10 μM, 2 or 72 h of incubation
Description: Even though many safe nitroaromatic molecules are today on the market (for example, antiprotozoal 5-nitroimidazoles such as metronidazole, several antihypertensive dihydropyridines like nicardipine, some benzodiazepines like loprazolam, anti-Parkinson’s catechol O-methyltransferase (COMT) inhibitors like entacapone, antiandrogens like flutamide, anti-inflammatory nimesulide, immunomodulating azathioprine, anticoagulant acenocoumarol, anthelminthic niclosamide, etc.) or in clinical trials (for instance, delamanid), drugs including a nitroaromatic moiety suffer from a bad reputation as possible mutagenic or genotoxic molecules, which narrows their pharmaceutical development.[29] The Ames test is the most commonly used assay to evaluate the mutagenic potential of compounds, using Salmonella typhimurium strains. […] Thus it is accepted that the comet assay or the micronucleus assay are more pertinent methods to evaluate the genotoxic potential of nitroaromatic compounds. For example, fexinidazole is positive in the Ames test but negative in the micronucleus assay.[31] A comet assay was then performed on the HepG2 cell line with hit compound 12, using methylmethanesulfonate (MMS) as a positive control (see the Supporting Information).
Electrophoresis (with a solution which contained
28 V (resulting in 0.8 V/cm).
After staining with SYBR®
Prague Czech Republic). […] The median […]

[8] = In vivo pharmacokinetics in the mouse after oral administration; details: oral 25 mg/kg
Experimental: Finally, the in vivo pharmacokinetic parameters were determined in the mouse, after oral administration at 25 mg/kg in a mixture of 5% Tween 80 and 95% of 0.5% carboxymethylcellulose in water, by using the QuEChERS method.[32] Monolix Lixoft software was used to analyze the data by a noncompartmental model to fit pharmacokinetics parameters.[33] […]
acetonitrile with 0.1% formic acid. […] The […]
decrease to 2% (B); 2.6 < t < 4 min, 2% (B). Carbamazepine, oxazepam, warfarine and diclofenac are […]
The unbound fraction (fu) is […]
internal standard (propranolol 200 nM).
= 350 μL and Vplasma = 200 μL).
All animals were kept under the same
3, 6, 9, 12, and 24h after administration. Blood samples were stored frozen until required for assay.
Sample preparation for spectrometry analysis
Megazol was used like the internal standard (IS). LC-MS Optima grade Acetonitrile (ACN) and […]
sesquihydrate) were supplied by VWR.

HepG2 cell line [9] = details: human, 72 h
[10] = Tolerance in the mouse after oral administration
[11] = parameters: method as in PMID 21200426; details: cited from earlier work
[12] = tested on: Salmonella typhimurium strains; details: cited from earlier work
[13] = tested on: L. infantum axenic amastigotes; details: previously reported pharmacophore and hit compounds; read-out: L. infantum axenic amastigote EC50; cited from earlier work
[14] = tested on: T. brucei brucei trypomastigotes; details: previously reported pharmacophore and hit compounds; cited from earlier work
[15] = female, Swiss, whole blood of mouse, n = 4

## O=c1[nH]c2c([N+](=O)[O-])cccc2cc1Cl [A, 3-chloro-8-nitroquinolin-2(1H)-one]
HepG2 cell line [1]; 3-chloro analogue A
  CC50: 85 ± 4 µM

## O=c1ccc2cc(C(F)(F)F)ccc2[nH]1 [Compound 1]
[2]
  Activity toward L. infantum (in words): inactive
[3]
  Antitrypanosomal activity against T. b. brucei (in words): inactive

## O=c1ccc2cc(C(F)(F)F)cc([N+](=O)[O-])c2[nH]1 [Compound 2]
In vitro
  CC50 at 72 h: 28 to 41 µM
[4]
  Shift of the E° value versus the comparator compound: +0.15 V

## O=c1[nH]c2ccc(C(F)(F)F)cc2cc1Cl [Compound 3]
[2]
  Activity toward L. infantum (in words): inactive
[3]
  Antitrypanosomal activity against T. b. brucei (in words): inactive

## O=c1[nH]c2ccc(C(F)(F)F)cc2cc1Br [Compound 4]
[2]
  Activity toward L. infantum (in words): inactive
[3]
  Antitrypanosomal activity against T. b. brucei (in words): inactive

## COc1ccc2cc(C(F)(F)F)cc([N+](=O)[O-])c2n1 [Compound 5]
[2]
  Activity toward L. infantum (in words): inactive
[4]
  Shift of the E° value versus the comparator compound: −0.36 V

## O=c1[nH]c2c([N+](=O)[O-])cc(C(F)(F)F)cc2cc1Br [Compound 7]
[2]; regarding L. infantum, HepG2
  Selectivity index (antileishmanial): > 10
[3]
  Selectivity index regarding T. b. brucei: > 200
[5]
  BBB PAMPA assay Pe: 45.03 ×10⁻⁶ cm/s and 45.03 ± 17.05 ×10⁻⁶ cm/s

## Nc1cc(C(F)(F)F)cc2cc(Br)c(=O)[nH]c12 [Compound 8]
[2]
  Activity toward L. infantum (in words): inactive

## O=c1ccc2cc(Br)cc([N+](=O)[O-])c2[nH]1 [Compound 9]
[3]
  Selectivity index regarding T. b. brucei: > 200
[3]; T. b. brucei trypomastigotes
  Times more active than 3-bromo-position isomer (hit 1): 27
  Times more active than the 8-nitroquinolin-2(1H)-one pharmacophore: 334
In vitro
  CC50 at 72 h: 28 to 41 µM
[4]
  Shift of the E° value versus the comparator compound: +0.14 V

## O=c1[nH]c2c([N+](=O)[O-])cc(Br)cc2cc1Br [Compound 10]
[3]
  Selectivity index regarding T. b. brucei: > 200
  EC50: 0.012 to 0.05 µM
In vitro
  CC50 at 72 h: 17 µM
[4]
  Shift of the E° value versus the comparator compound: +0.03 V

## O=c1[nH]c2c([N+](=O)[O-])cc(Cl)cc2cc1Cl [Compound 11]
[3]
  Selectivity index regarding T. b. brucei: > 200

## O=c1[nH]c2c([N+](=O)[O-])cc(Br)cc2cc1Cl [Compound 12]
[3]; T. b. brucei trypomastigotes
  Times more active than 3-chloro-analogue A: 100
[3]
  EC50: 0.012 to 0.05 µM
[6]
  Activity compared with nifurtimox against T. b. brucei: six times more active than nifurtimox
[5]
  BBB PAMPA assay Pe: 40.51 ×10⁻⁶ cm/s and 40.51 ± 6.93 ×10⁻⁶ cm/s
HepG2 cell line [7]
  Comet assay (genotoxicity): not genotoxic; also recorded: lack of genotoxicity; also recorded: Negative
[8]; female, Swiss, plasma, mouse, read-out: Plasmatic half life (converted)
  half-life at 24 h: 2.9 h
[8]; [15]
  AUC(0-inf): 123 µg·h/mL
  Cmax: 17400 ng/mL
  Tmax: 1.5 h
  half-life: 2.87 h
[8]; whole blood of mouse, n = 4
  Clairance: 0,00768 mL/h
HepG2 cell line [9]
  Times more cytotoxic than reference drugs: about 10
[10]; 25 mg/kg once daily for 5 days
  Tolerance, repeated dose: well tolerated without any adverse effect noted
[10]; kidney, liver, brain, heart, lung
  Organ lesions after euthanasia: no lesions were found
[10]; once daily oral dose at 25 or 50 mg/kg
  Tolerance, oral dose: well tolerated

## COc1cccc2c1C(=O)c1c(O)c3c(c(O)c1C2=O)C[C@@](O)(C(=O)CO)C[C@@H]3O[C@H]1C[C@H](N)[C@H](O)[C@H](C)O1 [Doxorubicin, reference compound]
HepG2 cell line [9]
  CC50: 0.2 ± 0.02 µM

## CSc1ccc(OCc2ncc([N+](=O)[O-])n2C)cc1 [Fexinidazole]
[11]
  Micronucleus assay: negative
[12]
  Ames test: positive

## O=c1[nH]c2c([N+](=O)[O-])cccc2cc1Br [Hit 1]
[13]
  EC50: 7.1 ± 1.5 µM
[14]
  EC50: 1.9 ± 0.4 µM
HepG2 cell line [1]; previously reported pharmacophore and hit compounds
  CC50: 92 ± 13 µM
[4]
  Shift of the E° value versus the comparator compound: +0.09 V

## O=C(O)c1ccc(-c2cc3cccc([N+](=O)[O-])c3[nH]c2=O)cc1 [Hit 2]
[13]
  EC50: > 100 µM
